The values that follow come from patent US8603493B2, “Carbosilane dendrimers, preparation method thereof and use of same” (Dendrico, S.L., priority 2005, dated 2013).

The subject of data set [1] is peripheral blood mononuclear cells (PBMC). Put plainly: Mitochondrial activity: MTT on PBMC. Type of data set: cell-based, human. Particulars: for Cell viability after incubation with dendrimers according to MTT: 48 hours, relative to untreated control; for mitochondrial viability (comparison among dendrimers): increasing concentrations of CBS or SF. The method, then: The toxicity of dendrimers IM8, IM16, ClNH4, NN, Phe and the commercial controls SF (Superfect) and G4 were tested. Different quantities were taken of each one of them so that the final concentrations with which the cells were incubated were 1 μM, 5 μM, 10 μM, 20 μM and 100 μM.
The blood came from adult donors or the umbilical cord of health newborns. Said blood was diluted ½ with PBS and it was centrifuged in a Ficoll gradient. After said centrifugation, the PBMC halo was recovered and two subsequent washing-centrifuging cycles were carried out. The resulting PBMC were resuspended in complete culture medium with 10% FCS, antibiotics and glutamine.
100 μl of 10% complete medium of foetal calf serum, antibiotics and glutamine were added to a volume of 60 μl of RPMI with the corresponding dendrimer tested. 160 μl were then added to the cells seeded in 340 μl, completing a final volume of 500 μl. The cells were incubated in this way for 48 hours and then the effect of the incubation with the dendrimers was evaluated by its visual examination and by the evaluation of the mitochondrial activity.
A curve of mitochondrial activity was performed of the dendrimer concentration after 48 hours. […] It is a […] test based on the selective capacity of the cells viable for reducing 3-(4,5-dimethylthiazol-2-il)-2,5-diphenyl tetrazolium bromide in insoluble formazan crystals. After 48 hours of incubation of the PBMC with different concentrations of dendrimers in a 96-well plate (100,000/well), the supernatant which contained dendrimer was removed and it was replaced by 200 μl of a culture medium without serum or red phenol (Optimem). To avoid the loss of cells in this step and subsequently of formazan, a modification had been made of the protocol, seeding the PBMC in total human plasma fibronectin (Sigma®) at a concentration of 5-10 μg/ml, so that during the 4-hour incubation they fixed to the bottom of the well. In addition to the 200 μl of Optimem, 20 μl of filtered MTT were added to achieve its sterility (Thiazolyl Blue, Sigma®) in PBS pH 7.4 at a concentration of 5 mg/ml to achieve a final concentration per well of 0.5 mg MTT/ml. After 4 hours of incubation at 37° C. with 5% CO2 atmosphere, the plate was centrifuged at 2000 rpm and the supernatant with the excess MTT that had not reacted was subsequently removed. The formazan crystals were observed under a phase contrast microscope and later dissolved with 200 μl of dimethyl sulfoxide (DMSO). The plate was stirred at 700 rpm in an Eppendorf® stirrer-heater to ensure the correct dissolution of said crystals. The concentration of formazan ([A]) was determined by spectrometry using a plate reader at a wavelength of 570 nm with a reference of 690 nm. The spectrophotometry was calibrated to zero using Optimem without cells. The relative cell viability (%) with respect to the control (untreated cells), based on mitochondrial activity, was calculated based on this formula: [A] test/[A] control×100. Each dendrimer concentration was tested in triplicate, following the guidelines of the ATCC.

In data set [2] the test system is PBMC. Put plainly: Flow cytometry test (size and complexity; live cells vs apoptosis-necrosis). In kind it is cell-based, human. The settings on record: 72 hours, same concentrations as Trypan Blue test. The method, then: The evaluation time on this occasion was 72 hours. The toxicity was evaluated on PBMC, produced in the manner described in Example 38. […] The ODN used was PPT, in the following way: • [ODN PPT] in the complex with the CBS: 2.57 (0.88 μM) • [ODN PPT] in the complex with SF: 0.34 μM • [ODN PPT] in the complex with G4: 1 μM […] The cells were either incubated with said complexes, a mixture of equal volume which contained ODN without CBS, a mixture which contained dendrimer alone, or with a mixture which contained only RPMI+complete medium which was used as negative control. The cells and/or the supernatant were then collected to be analysed by flow cytometry, confocal microscopy or cell DNA extraction. The percentages of cells with size and complexity corresponding to cells in apoptosis-necrosis were compared with the live cells. For this, the size (FW) and the complexity (SD) was evaluated by flow cytometry. To do this, a region was drawn around the cells with FW and SD corresponding to cells in apoptosis-necrosis and another around the cells with FW and SD corresponding to live cells. The percentages of cells present in each slide were compared. The graphics produced are shown in FIG. 15, wherein the X-axis represents the size (FW) and the Y-axis the complexity (SD). […] The cloud of dark cells corresponds to cells in apoptosis necrosis. The live cells are represented in grey.

In data set [3] the test system is PBMC. Description: Staining with Trypan Blue of PBMC treated with dendriplexes or dendrimers. Particulars: 72 hours, (+/−)=2/1, IM8 3.93 μM, IM16 1.99 μM, ClNH4 3.98 μM, Phe 1.96 μM, NN 3.94 μM, SF 0.68 μM, G4 100 μM, PPT 0.88 μM (0.34 μM with SF, 1 μM with G4), n = 100 cells per count.
Data set [4] relates to ODN PPT. Put plainly: Stability of the dendriplexes in aqueous solution in accordance with time. The settings on record: after 24 hours. In kind it is physicochemical. As to the method:
Different samples of dendriplexes were prepared in aqueous solution formed between the ODN PPT and dendrimers IM8, IM16 and NN at a 2/1 charge ratio according to Example 31 and electrophoresis was performed after different times since the preparation of the samples, specifically 0 hours, 6 hours and 24 hours. During those times, the dendriplexes were maintained in conditions which imitate the physiological conditions: 37° C., in 5% CO2 atmosphere. The results are shown in FIG. 5, wherein the gel of FIG. 5a corresponds to the sample of 0 hours, that of FIG. 5b to the samples after 6 hours and that of FIG. 5c to the samples after 24 hours. In the three cases, a, b and c, the samples appear in the lanes following this order: […]

Data set [5] deals with PBMC. Description: Lymphoproliferative test (tritiated thymidine). Particulars: 5 days, average of triplicate. In kind it is cell-based, human. The method, then:
To evaluate the antigenic capacity of CBS dendrimers, a lymphoproliferative test was performed. The experiment was prepared in triplicate in a 96-well flat bottomed plate (100,000 cells per well in 200 μl of complete human AB medium with antibiotics, glutamine and 10% AB serum). […] After 5 days of incubation at 37° C. with 5% atmosphere of CO2 100 μl of supernatant was removed, then adding 100 μL of a medium with an isotopic intercalating agent of DNA, tritiated thymidine (prepared with 10% AB medium and Thymidine 1/100). The plate was then filtered using a Harvester passing its content through a filter, which was left to dry overnight (approx. 16 hours). After this period, a sheet of Methylex® containing scintillation medium was heat-melted, and it was read in a gamma camera to evaluate the number of counts (greater the counts, more proliferation). The results, which are shown below in Table 8, are expressed as tritiated thymidine counts per minute (cpm). Each result of each concentration was performed in triplicate, the value which appears in the table being the average of the 3. The PHA and the control were tested 12 times.

The structures appear in SMILES notation.

As for `C[Si](C)(CCCN)CCC[Si](C)(CCC[Si](C)(C)CCCN)CCC[Si](CCC[Si](C)(CCC[Si](C)(C)CCCN)CCC[Si](C)(C)CCCN)(CCC[Si](C)(CCC[Si](C)(C)CCCN)CCC[Si](C)(C)CCCN)CCC[Si](C)(CCC[Si](C)(C)CCCN)CCC[Si](C)(C)CCCN.Cl.Cl.Cl.Cl.Cl.Cl.Cl.Cl` [ClNH4, 2G-[Si(CH2)3NH3^+Cl^−]8], the “Cell viability after incubation with dendrimers according to MTT” value (“Cell viability after incubation” for short) in data set [1] (1 μM) amounted to 65.5%; in data set [1] (5 μM) it was 47%; in data set [1] (10 μM) it was 40%; in data set [1] (20 μM), 16%; in data set [1] (100 μM), 14%. Also, the “Apoptosis-necrosis (%)” value in data set [2] is 26%. Besides, the “Live cells (%)” value in data set [2] was 71%. Moreover, in data set [3], the “TB+ (%), cells stained with Trypan Blue” value is recorded as 15.7%.

Turning to `C[N+](C)(C)CCO[Si](C)(C)CCC[Si](C)(CCC[Si](CCC[Si](C)(CCC[Si](C)(C)OCC[N+](C)(C)C)CCC[Si](C)(C)OCC[N+](C)(C)C)(CCC[Si](C)(CCC[Si](C)(C)OCC[N+](C)(C)C)CCC[Si](C)(C)OCC[N+](C)(C)C)CCC[Si](C)(CCC[Si](C)(C)OCC[N+](C)(C)C)CCC[Si](C)(C)OCC[N+](C)(C)C)CCC[Si](C)(C)OCC[N+](C)(C)C.[I-].[I-].[I-].[I-].[I-].[I-].[I-].[I-]` [IM8, 2G-[Si(OCH2CH2NMe3^+I^−)]8], in data set [4], the “ODN released from dendrimer” value was about 100%. Besides, the “Cell viability after incubation” value in data set [1] (1 μM) is reported as 98%; in data set [1] (5 μM), 60%; in data set [1] (10 μM) it was 18%; in data set [1] (20 μM), 12%; in data set [1] (100 μM), 10%. Moreover, in data set [2], the “Apoptosis-necrosis (%)” value was found to be 36%. Also, the “Live cells (%)” value in data set [2] is reported as 59%. For the same compound, the “Measurement of the scintillation counter (tritiated thymidine counts)” value (“Measurement of the scintillation counter” below) in data set [5] (2 μM) amounted to 144 cpm; in data set [5] (5 μM), 149 cpm. Besides, the “TB+ (%), cells stained with Trypan Blue” value in data set [3] was 17.1%.

On to `C[N+](C)(C)CCO[Si](C)(CCC[Si](C)(CCC[Si](CCC[Si](C)(CCC[Si](C)(OCC[N+](C)(C)C)OCC[N+](C)(C)C)CCC[Si](C)(OCC[N+](C)(C)C)OCC[N+](C)(C)C)(CCC[Si](C)(CCC[Si](C)(OCC[N+](C)(C)C)OCC[N+](C)(C)C)CCC[Si](C)(OCC[N+](C)(C)C)OCC[N+](C)(C)C)CCC[Si](C)(CCC[Si](C)(OCC[N+](C)(C)C)OCC[N+](C)(C)C)CCC[Si](C)(OCC[N+](C)(C)C)OCC[N+](C)(C)C)CCC[Si](C)(OCC[N+](C)(C)C)OCC[N+](C)(C)C)OCC[N+](C)(C)C.[I-].[I-].[I-].[I-].[I-].[I-].[I-].[I-].[I-].[I-].[I-].[I-].[I-].[I-].[I-].[I-]` [IM16, 2G-[Si(OCH2CH2NMe3^+I^−)2]8], for which, in data set [4], the “ODN released from dendrimer” value is about 100%. In addition, the “Cell viability after incubation” value in data set [1] (1 μM) is given as 94%; in data set [1] (5 μM), 99%; in data set [1] (10 μM) it was 63%; in data set [1] (20 μM) it was 37%; in data set [1] (100 μM) it was 11%. For the same compound, the “mitochondrial viability (comparison among dendrimers)” value in data set [1] was “greater mitochondrial viability”. Also, the “Apoptosis-necrosis (%)” value in data set [2] came out at 28%. Also, in data set [2], the “Live cells (%)” value stood at 67%. The results for the “Measurement of the scintillation counter” value in data set [5] (2 μM) and in data set [5] (5 μM) were 175 cpm and 141 cpm, respectively. The “TB+ (%), cells stained with Trypan Blue” value in data set [3] turned out to be 18.5%.

As for `C[N+](C)(C)CCOc1cc(CO[Si](C)(C)CCC[Si](C)(CCC[Si](CCC[Si](C)(CCC[Si](C)(C)OCc2cc(OCC[N+](C)(C)C)cc(OCC[N+](C)(C)C)c2)CCC[Si](C)(C)OCc2cc(OCC[N+](C)(C)C)cc(OCC[N+](C)(C)C)c2)(CCC[Si](C)(CCC[Si](C)(C)OCc2cc(OCC[N+](C)(C)C)cc(OCC[N+](C)(C)C)c2)CCC[Si](C)(C)OCc2cc(OCC[N+](C)(C)C)cc(OCC[N+](C)(C)C)c2)CCC[Si](C)(CCC[Si](C)(C)OCc2cc(OCC[N+](C)(C)C)cc(OCC[N+](C)(C)C)c2)CCC[Si](C)(C)OCc2cc(OCC[N+](C)(C)C)cc(OCC[N+](C)(C)C)c2)CCC[Si](C)(C)OCc2cc(OCC[N+](C)(C)C)cc(OCC[N+](C)(C)C)c2)cc(OCC[N+](C)(C)C)c1.[I-].[I-].[I-].[I-].[I-].[I-].[I-].[I-].[I-].[I-].[I-].[I-].[I-].[I-].[I-].[I-]` [Phe, 2G-[Si(OCH2—(C6H3)-3,5-(OCH2CH2NMe3^+I^−)2)]8], the “Cell viability after incubation” value in data set [1] (1 μM) worked out at 83%; in data set [1] (5 μM), 77%; in data set [1] (10 μM), 71%; in data set [1] (20 μM), 54%; in data set [1] (100 μM), 14%. The “mitochondrial viability (comparison among dendrimers)” value in data set [1] was “greater mitochondrial viability”. In data set [2], the “Apoptosis-necrosis (%)” value is reported as 33%. The “Live cells (%)” value in data set [2] came to 61%. Besides, the “Measurement of the scintillation counter” value is given as 146 cpm in data set [5] (2 μM) and 170 cpm in data set [5] (5 μM). Besides, the “TB+ (%), cells stained with Trypan Blue” value in data set [3] is reported as 11.3%.
